Like-named read-outs stand apart in the source and are kept apart here.
What was measured:
[1] = Minipump infusion of psilocybin over 12 days: plasma/blood exposure; type: in vivo, rats
Procedure: A dose of psilocybin, which is free from perceptual and behavioral side effects, was dosed in rats (N=24) continuously over a period of 12 days using an Alzet minipump implanted in rats of approximately 380-390 g body weight. The pump was primed to deliver psilocybin at 5 mg/kg/day pump concentration. The target plasma concentration was 10 ng/ml psilocin with actual plasma concentration 9.3+1.3 ng/ml over the 12 day study period.
Blood was collected from rats on days 4, 8 and 12 to measure levels of psilocybin and psilocin in Group B rats. Blood was collected via saphenous bleed at a standard timepoint which will not interfere with 5-choice testing. Psilocin blood levels were in the range of 8-10 ng/ml over days 4-12, while psilocybin blood levels were in the range of 2-5 ng/ml over days 4-12 (FIG. 7A), corresponding to 10 ng/mL psilocin. […] The present observations recorded for psilocybin/psilocin are occurring at exposure levels of psilocin ˜10 ng/ml (e.g., FIG. 5), likely resulting in a low level of CNS 5-HT2A receptor occupancy, and which is insufficient to elicit cardinal signs of 5-HT2A receptor activation such as WDS/BMC in rats (e.g., FIG. 1B).

[2] = Psilocybin and psilocin plasma pharmacokinetics after s.c. psilocybin; type: in vivo, rats; conditions: for Cmax / concentration at 0.25 h / concentration at 0.5 h / concentration at 0.75 h / concentration at 1 h / concentration at 2 h / concentration at 4 h / concentration at 6 h / Tmax / AUC(0-inf) / AUC(0-t) / half-life / MRT inf: rat, rats; for Cmax / concentration at 0.25 h / concentration at 0.5 h / concentration at 0.75 h / concentration at 1 h / concentration at 2 h / concentration at 4 h / concentration at 6 h: plasma; for AUC(0-inf): read-out: AUC0-inf, Mean; for AUC(0-t): read-out: AUC0-tlast, Mean; for half-life: read-out: Apparent t1/2, Mean (converted); for MRT inf: read-out: MRT0-inf, Mean
Procedure: Psilocybin doses of 0.05, 0.1, 1, 10 mg/kg were used to evaluate psilocybin and psilocin PK in rats. For the doses of psilocybin that positively effect behaviors in the low performers in the PR and 5CSRTT, e.g., 0.05-0.1 mg/kg, the corresponding Cm. of psilocin was ˜7±2 ng/ml at 30 minutes for 0.05 mg/kg, and at a dose of 0.1 mg/kg, the Cm. of psilocin was determined to be ˜12±3 ng/ml at 30 minutes (FIG. 5).
Details of the plasma concentration studies are shown in Tables 1-8 (psilocybin) and 9-16 (psilocin). Values in italics are below the lower level of quantitation (BLQ, <1 ng/mL) but were included in calculations. Values in bold and underlined are considered to be outliers and were omitted from calculations. Measured dosing solution concentrations were 0.0460, 0.0967, 0.948 and 9.65 mg/mL for 0.05, 0.1, 1 and 10 […].

[3] = subcutaneous, after psilocybin 0.05 mg/kg s.c.
[4] = subcutaneous, after psilocybin 0.1 mg/kg s.c.
[5] = subcutaneous, after psilocybin 1 mg/kg s.c.
[6] = subcutaneous, after psilocybin 10 mg/kg s.c.
[7] = sc, psilocin in plasma after psilocybin 0.05 mg/kg s.c.
[8] = sc, psilocin in plasma after psilocybin 0.1 mg/kg s.c.
[9] = sc, psilocin in plasma after psilocybin 1 mg/kg s.c.
[10] = sc, psilocin in plasma after psilocybin 10 mg/kg s.c.

In the case of `CN(C)CCc1c[nH]c2cccc(O)c12` [psilocin, 4-hydroxy-N,N-dimethyltryptamine], the “Plasma [psilocin]” value ([1]; Regimen 4, mini-pump chronic, improvement in attention in 10 s ITI 5-choice test) is reported as ~10 ng/mL, the “actual plasma concentration of psilocin” value ([1]; psilocybin minipump 5 mg/kg/day, over the 12 day study period, rats) is reported as 9.3 ± 1.3 ng/mL and the Psilocin blood levels ([1]; psilocybin minipump, days 4-12, rats) is reported as 8 to 10 ng/mL. For the same molecule, the “Plasma [psilocin]” value ([2]; Regimen 1, 0.05-0.1 mg/kg acute, increase in breakpoint under PR schedule (low performer subgroup)) was ~5 to 12 ng/mL, the “Plasma [psilocin]” value ([2]; Regimen 2, 0.05-0.1 mg/kg acute, improvement in attention and response speed in 5-choice test (low performer subgroup)) was ~5 to 12 ng/mL and the “Plasma [psilocin]” value ([2]; Regimen 3, 0.05-0.1 mg/kg acute, increase in PREM/PSV response in 10 s ITI 5-choice test (low impulsive subgroup)) was ~5 to 12 ng/mL. The “Plasma [psilocin]” value ([2]; Regimen 5, ≥0.3 mg/kg acute, induction of overt 5-HT2A behaviors of WDS/BMC) was ≥25 ng/mL, the Cmax ([2]; sc, 0.05 mg/kg, psilocin in plasma after psilocybin 0.05 mg/kg s.c., read-out: Cmax, Mean) was 7.14 ng/mL and the Cmax ([2]; sc, 0.05 mg/kg, psilocybin 0.05 mg/kg, after 30 mins, read-out: Cmax psilocin) was ~6 ng/mL. It also gave a Cmax ([2]; sc, 0.1 mg/kg, psilocin in plasma after psilocybin 0.1 mg/kg s.c., read-out: Cmax, Mean) of 11.7 ng/mL, a Cmax ([2]; sc, 1 mg/kg, psilocin in plasma after psilocybin 1 mg/kg s.c., read-out: Cmax, Mean) of 83.3 ng/mL and a Cmax ([2]; sc, 10 mg/kg, psilocin in plasma after psilocybin 10 mg/kg s.c., read-out: Cmax, Mean) of 1110 ng/mL. The Cmax ([2]; subcutaneous, 0.05 mg/kg, psilocybin 0.05 mg/kg, after 30 mins, read-out: Cmax psilocin) was ~7 ng/mL, the Cmax ([2]; subcutaneous, 0.1 mg/kg, psilocybin 0.1 mg/kg, after 30 mins, read-out: Cmax psilocin) was ~12 ng/mL and the Cmax ([2]; subcutaneous, 1 mg/kg, psilocybin 1 mg/kg, after 30 mins, read-out: Cmax psilocin) was ~83 ng/mL. It also gave a Cmax ([2]; subcutaneous, 10 mg/kg, psilocybin 10 mg/kg, after 30 mins, read-out: Cmax psilocin) of ~1110 ng/mL, a concentration at 0.25 h [2, 3] of 3.76 ng/mL and a concentration at 0.5 h [2, 3] of 5.68 ng/mL. It also gave a concentration at 0.75 h [2, 3] of 3.11 ng/mL, a concentration at 1 h [2, 3] of 5.91 ng/mL and a concentration at 2 h [2, 3] of 2.23 ng/mL. For the same molecule, the concentration at 4 h [2, 3] was 0.49 ng/mL, the concentration at 6 h [2, 3] was 0.136 ng/mL and the concentration at 0.25 h [2, 4] was 9.35 ng/mL. It also gave a concentration at 0.5 h [2, 4] of 12.3 ng/mL, a concentration at 0.75 h [2, 4] of 7.73 ng/mL and a concentration at 1 h [2, 4] of 5.7 ng/mL. The concentration at 2 h [2, 4] was 2.78 ng/mL, the concentration at 4 h [2, 4] was 0.535 ng/mL and the concentration at 6 h [2, 4] was 0.215 ng/mL. It also gave a concentration at 0.25 h [2, 5] of 74.5 ng/mL, a concentration at 0.5 h [2, 5] of 76.6 ng/mL and a concentration at 0.75 h [2, 5] of 70.3 ng/mL. The concentration at 1 h [2, 5] was 69.9 ng/mL, the concentration at 2 h [2, 5] was 29.7 ng/mL and the concentration at 4 h [2, 5] was 5.5 ng/mL. It also gave a concentration at 6 h [2, 5] of 1.34 ng/mL, a concentration at 0.25 h [2, 6] of 704 ng/mL and a concentration at 0.5 h [2, 6] of 898 ng/mL. The concentration at 0.75 h [2, 6] was 1080 ng/mL, the concentration at 1 h [2, 6] was 1070 ng/mL and the concentration at 2 h [2, 6] was 713 ng/mL. The concentration at 4 h [2, 6] was 269 ng/mL, the concentration at 6 h [2, 6] was 132 ng/mL and the Tmax [2, 7] was 36 min. For the same molecule, the AUC(0-inf) [2, 7] was 10.3 ng·h/mL, the AUC(0-t) [2, 7] was 10.1 ng·h/mL and the half-life [2, 7] was 60 min. It also gave an MRT inf [2, 7] of 104 min, a Tmax [2, 8] of 32.2 min and an AUC(0-inf) [2, 8] of 15.7 ng·h/mL. For the same molecule, the AUC(0-t) [2, 8] was 12.5 ng·h/mL, the half-life [2, 8] was 55.1 min and the MRT inf [2, 8] was 85.2 min. For the same molecule, the Tmax [2, 9] was 34.3 min, the AUC(0-inf) [2, 9] was 143 ng·h/mL and the AUC(0-t) [2, 9] was 117 ng·h/mL. For the same molecule, the half-life [2, 9] was 52.7 min, the MRT inf [2, 9] was 91.8 min and the Tmax [2, 10] was 42.8 min. It also gave an AUC(0-inf) [2, 10] of 3380 ng·h/mL, an AUC(0-t) [2, 10] of 2280 ng·h/mL and a half-life [2, 10] of 99 min. It also gave an MRT inf [2, 10] of 160 min.

Reference: patent US20230233584A1, “EXTENDED RELEASE 5-HT RECEPTOR AGONISTS FOR NEUROLOGICAL CONDITIONS” (Diamond Therapeutics Inc., priority 2020, published 2023)
